From PMC11836371, “Virtual fragment screening for DNA repair inhibitors in vast chemical space” (Nature Communications, 2025)

Target: T1, OGG1 in HL60 cells (Homo sapiens, UniProt O15527)
T1 construct: endogenous in cells; host or cells: HL60
Assay: Cellular thermal shift assay (CETSA)
Assay type: cell-based
Procedure: CETSA experiments were carried out with intact HL60 cells treated in culture. Cells were seeded at a density of 350 000 cells/mL and treated with DMSO (0.01%, v/v) or 20 µM test compound for 2 h at 37 °C and 5% CO2 in a humidified incubator. Cells were washed once in 1x TBS (50 mM Tris-HCl, pH 7.6, 150 mM NaCl), resuspended in 1x TBS supplemented with protease inhibitors (Roche), and then divided into 30-µL aliquots corresponding to approximately 600,000 cells per sample in PCR strip tubes. Cells were heated in a Veriti Thermal Cycler (Applied Biosystems) for 3 min at indicated temperatures (temperature interval consisting of 2 °C increases, starting from 40 °C up to 62 °C) and cooled for 5 min at room temperature to allow precipitation of denatured proteins. 5x NP-40 buffer was added to the samples and cells were lysed by performing three freeze–thaw cycles at −80 °C for 3 min and at 37 °C for 3 min with gentle vortexing between the cycles. Cell lysates were then centrifuged at 17,000 g and 4 °C for 30 min to remove cellular debris and insoluble proteins. Supernatant was prepared for western blot analysis according to standard procedures. […]

T1 sequence (O15527 whole entry): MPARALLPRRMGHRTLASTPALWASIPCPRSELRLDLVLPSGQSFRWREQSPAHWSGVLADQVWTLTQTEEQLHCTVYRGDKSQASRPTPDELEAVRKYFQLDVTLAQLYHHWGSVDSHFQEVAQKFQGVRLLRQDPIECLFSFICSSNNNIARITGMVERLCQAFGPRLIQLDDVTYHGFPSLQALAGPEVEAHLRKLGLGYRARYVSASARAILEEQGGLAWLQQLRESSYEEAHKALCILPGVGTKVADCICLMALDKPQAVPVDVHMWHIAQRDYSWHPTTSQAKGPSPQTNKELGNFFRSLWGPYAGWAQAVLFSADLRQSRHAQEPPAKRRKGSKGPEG

thermal stabilization of OGG1 in cells (CETSA): strong thermal stabilization
SMILES: Cc1nc(-c2cc(F)c(CC(=O)Nc3noc4c3CCCC4)c(F)c2)c(C)[nH]1 [compound 23]
